Experimental data as given in US6573258B2, “Photodynamic porphyrin antimicrobial agents” (Frontier Scientific, Inc., priority 2000, dated 2003).

How the values were obtained:
[1] = system: E. coli cells; test: Growth inhibition after 5 min incubation with porphyrin and white-light irradiation; format: cell-based, Escherichia coli; conditions: for concentration photoinducing significant bacteriostatic and bactericidal action: both cell strains (S. aureus and E. coli)
Description: (§1) The abilities of various examples of the porphyrins of the instant invention to kill Gram-negative and Gram-positive bacteria were tested against that of T4MPyP. Each of the compounds was incubated with E. coli and S. aureus cells for 5 minutes, following which the samples were irradiated with white light for varying lengths of time.
(§2) Escherichia coli strain O4 (wild type), and methycillin-resistant Staphylococcus aureus, strain MRSA 110, were grown aerobically at 37° C. in brain heart infusion broth (BHI, Difco, Detroit, Mich.). The cells in the stationary phase of growth were harvested by centrifugation (2,000 g for 15 min) of the broth cultures, washed twice with 10 mM PBS at pH=7.4, containing 2.7 mM KCl and 0.14 M NaCl, and suspended in PBS at a density of 10^8-10^9 cells/ml (absorbance of about 0.7 at 650 nm). Aliquots of 5 ml of the cell suspension were incubated with 1 μM porphyrins for 5 min in the dark at room temperature. After incubation the suspensions were centrifuged and the cell pellets were collected immediately or washed with PBS and centrifuged again for one or three times.
(§3) The toxic effects of T4MPyP and its analogues on E. coli and S. aureus cells were evaluated by measuring the extent of growth inhibition (bacteriostatic effect) and reduction of survival (cytocidal/bacteriocidal effect) following treatment with porphyrin in the dark or upon light exposure.
(§4) In all cases, 5 ml of the cell suspension (10^8-10^9 cells/ml) were incubated for 5 min in the dark at room temperature with the selected photosensitizer at concentrations ranging between 0.5 and 10 μM. After dark-incubation, some of the cell samples were irradiated with white light (150 mW/cm^2). During irradiation, (up to 30 min) the cells were kept at 37° C. and magnetically stirred. The treated and untreated control cells were diluted with BHI and maintained at 37° C. while the absorbance of the suspension at 650 nm was monitored at predetermined time periods for determining growth curves. The percent of growth inhibition in the treated cells was calculated by the following equation: […]
(§5) where AX, and AC are the absorbances measured after 3 h incubation, respectively, for the treated and control cell suspensions, respectively, while A0 represents the initial absorbance and the AC is that of the control cell suspension after 5 hours incubation. Cell survival was determined by plating serially diluted aliquots of treated and untreated cells on brain heart agar and counting the number of colonies after 18-24 h incubation at 37° C.

[2] = system: S. aureus cells; test: as above; format: cell-based, Staphylococcus aureus
Description: as §1, §2, §3
[…] After dark-incubation, some of the cell samples were irradiated with white light (150 mW/cm^2). During irradiation, (up to 30 min) the cells were kept at 37° C. and magnetically stirred. The treated and untreated control cells were diluted with BHI and maintained at 37° C. while the absorbance of the suspension at 650 nm was monitored at predetermined time periods for determining growth curves. The percent of growth inhibition in the treated cells was calculated by the following equation:
as §5

[3] = system: E. coli cells; test: Decrease of cell survival (colony counting) after white-light irradiation; format: cell-based, Escherichia coli; conditions: for DECREASE OF SURVIVAL (log): 5 min dark incubation, 15 min white light (150 mW/cm^2)
Description: as §2, §3, §4, §5

[4] = Fluorescence quantum yields; format: physicochemical; conditions: for ΦF (PBS), fluorescence quantum yield: in PBS; for ΦF (SDS), fluorescence quantum yield: in aqueous 2% SDS
Description: Ground-state absorption spectra of the porphyrins (ca. 5 μM in phosphate buffered saline (PBS, pH=7.4) were recorded with a Lambda 5 Perkin-Elmer spectrophotometer. Fluorescence spectra, corrected for the instrumental response, were recorded with a Perkin-Elmer (model LS) or a Spex (Fluorolog F112) spectrofluorimeter. Fluorescence quantum yields ((IF) of the porphyrin derivatives in PBS and in water containing 2% sodium dodecylsulfate (a detergent, hereinafter “SDS”) were determined by measuring the area of the emission spectrum (600-800 nm range, excitation at 560 nm) and using tetra-n-propylporphycene in toluene as a reference (ΦF=0.38). Braslavsky et al, J. Photochem. Photobiol. B: Biol., 40:191-198 (1997). In all cases, the absorbance of the sample and the reference solution were kept below 0.1 at the excitation wavelength to minimize inner filter effects.

[5] = Fluorescence decay times (phase-shift method); format: physicochemical; conditions: ca. 5 μM, air-equilibrated buffer pH 7.4, λexc = 420 nm, λem > 600 nm; for A1, relative weight of fast component: dihydrochloride salt
Description: Fluorescence decay times of the porphyrin samples were measured by means of a Spex Fluorolog-τ2 spectrofluorimeter based on the phase-shift method. The frequency response curves (phase-shift and demodulation ratio vs. frequency) were globally analyzed.

[6] = Triplet state properties by laser flash photolysis; format: physicochemical; conditions: phosphate-buffered solution; for φT, triplet quantum yield: ε920 estimated by total depletion method
Description: Laser flash photolysis experiments were carried out by use of the setup previously described in Gomer, et al., with excitation wavelengths of 355 and 420 nm. Gorner, et al., Photoinduced electron transfer between styrylanthracenes and electron donors and acceptors in acetonitrile, J. Chem. Soc. Faraday Trans., vol. 88, pp. 29-34 (1992).
The transient spectra of the porphyrins in buffer solutions were recorded upon laser flash photolysis excitation at 355 and 420 nm. […] The decay (growth) of the signal (bleaching) occurred according to first-order kinetics and led to a complete recovery of the ground state with a lifetime of 91 μs. […] This also allowed the triplet quantum yield (φT) to be determined (see Table 3), after calibration of the experimental setup by use of an optically-matched solution of benzophenone in acetonitrile.

[7] = Photosensitized photooxidation of NATA; conditions: 10 μM NATA; for ΦSDS × 10^3, quantum yield for photo-oxidation of NATA: aqueous 2% SDS; for ΦPBS × 10^3, quantum yield for photo-oxidation of NATA: phosphate buffered solution
Description: The photosensitizing activity of the various porphyrins was tested by measuring their efficiency in promoting the photooxidation of N-acetyl-L-tryptophanamide (NATA, Aldrich Chem. Co.) as a model biological substrate. Toward this aim, 10 μM NATA in PBS or in water containing 2% SDS was irradiated in the presence of 5 μM porphyrin. The irradiations were performed with 515±10 nm-light isolated by means of an interference filter (Balzers, Liechtenstein), while the solution (2 ml) was magnetically stirred in a quartz cuvette of 1-cm optical path and kept at 25° C. The photosensitized modification of NATA was followed by measuring the decrease in the intensity of its fluorescence emission spectrum (300-450 nm) upon excitation with 290 nm-light at various irradiation times. Plots of in F°/F (where F° and F represent the fluorescence intensity at time 0 and t, respectively) vs. the irradiation time allowed the first-order rate constants of the photo-process to be derived.
The intensity of the incident light was measured by using Aberchrome 999P in toluene as an actinometer. Heller, EPA Newslett., 29:49-60 (1987). This parameter was used to calculate the quantum yields of NATA photooxidation sensitized by the different porphyrins.

[8] = system: S. aureus cells; test: Binding of porphyrins to bacteria cells; format: cell-based, Staphylococcus aureus; conditions: 1 μM, 5 min
Description: as §2
The amount of cell-bound porphyrins was determined in the pellets after resuspension and overnight-incubation in 2% aqueous SDS. The porphyrin concentration in the cell lysate was determined by measuring the intensity of red fluorescence (600-750 nm) emitted after excitation at 420 nm and interpolating the data on a calibration plot obtained with known porphyrin concentrations. The protein content of the cell samples was determined by the method of Lowry (Lowry et al., J. Biol. Chem., 193:265-275 (1951)) and was used to express the amount of porphyrin bound to the cells as nanomoles of porphyrin/mg of protein.

[9] = system: S. aureus cells; test: Dark toxicity of porphyrins on bacteria cells; format: cell-based, Staphylococcus aureus; conditions: 10 μM, 5 min incubation in the dark
Description: as §3, §4, §5

[10] = system: E. coli cells; test: Dark toxicity of porphyrins on bacteria cells; format: cell-based, Escherichia coli; conditions: 10 μM, 5 min incubation in the dark
Description: as §3, §4, §5

[11] = 0.5 μM, incubated 5 min, white light 5 min
[12] = 0.5 μM, incubated 5 min, white light 10 min
[13] = Table 5: 0.5 μM, 5 min incubation, 5 min white light (150 mW/cm^2)

| Molecule | Growth inhibition (%) E. coli [1, 11] | Growth inhibition (%) E. coli [1, 13] | concentration photoinducing significant bacteriostatic and bactericidal action [1] | Growth inhibition (%) S. aureus [2, 13] | DECREASE OF SURVIVAL (log) ([3]; 1 μM porphyrin) | ΦF (PBS), fluorescence quantum yield [4] | ΦF (SDS), fluorescence quantum yield [4] | A2, relative weight of slow component [5] | τ1, fluorescence decay time of fast component [5] | τ2, fluorescence decay time of slow component [5] | A1, relative weight of fast component [5] | λmax of transient spectrum [6] | λmin of transient spectrum [6] | φ×ε920 [6] | τ^N2, triplet lifetime [6] | τ^air, triplet lifetime [6] | φT, triplet quantum yield [6] | ΦSDS × 10^3, quantum yield for photo-oxidation of NATA [7] | ΦPBS × 10^3, quantum yield for photo-oxidation of NATA [7] | association with S. aureus compared with E. coli [8] | further results |
| --- | --- | --- | --- | --- | --- | --- | --- | --- | --- | --- | --- | --- | --- | --- | --- | --- | --- | --- | --- | --- | --- |
| CCCCCCCCCC[n+]1ccc(-c2c3nc(c(-c4cc[n+](C)cc4)c4ccc([nH]4)c(-c4cc[n+](C)cc4)c4nc(c(-c5cc[n+](C)cc5)c5ccc2[nH]5)C=C4)C=C3)cc1.Cl.Cl.[Cl-].[Cl-].[Cl-].[Cl-] [Porphyrin C10, 5-(4-N-decylpyridyl)-10,15,20-tris(4-N-methylpyridyl)-21H,23H-porphine tetrachloride dihydrochloride salt] | 46.3% | 46% | ten-fold lower concentration | 74% | −4.32 ± 0.34 log | 0.015 | 0.026 | 94% | 1.1 ns | 5.2 ns | 6% | 490 nm | 420 nm | 10214 M⁻¹ cm⁻¹ | 67 μs | 20 μs | 0.49 | 0.64 ± 0.26 | 0.59 ± 0.05 | almost two-fold larger | Growth inhibition (%) E. coli [1, 12]: 92%; Growth inhibition (%) E. coli ([1]; 1 μM, incubated 5 min, white light 5 min): 96.1%; Growth inhibition (%) E. coli ([1]; 1 μM, incubated 5 min, white light 10 min): 100%; Growth inhibition (%) S. aureus [2, 11]: 73.9%; Growth inhibition (%) S. aureus [2, 12]: 87.9%; drop in survival of E. coli cells ([3]; 1 μM porphyrin, 15 min irradiation): 4 log |
| 5-(4-N-hexylpyridyl)-10,15,20-tris(4-N-methylpyridyl)-21H,23H-porphine tetrachloride dihydrochloride salt [Porphyrin C6] | 4.8% | 5% | 10 µM | 47% | +0.05 log | 0.018 | 0.029 | 94% | 0.9 ns | 5.1 ns | 6% | 480 nm | 425 nm | 6217 M⁻¹ cm⁻¹ | 71 μs | 16 μs | 0.48 | 0.68 ± 0.14 | 0.59 ± 0.05 | almost two-fold larger | Growth inhibition (%) E. coli ([1]; 0.5 μM, incubated 5 min, white light 30 min): 15.5%; Growth inhibition (%) E. coli ([1]; 10 μM, incubated 5 min, white light 5 min): 98.7%; Growth inhibition (%) E. coli ([1]; 10 μM, incubated 5 min, white light 10 min): 100%; Growth inhibition (%) E. coli ([1]; Table 5: 10 μM, 5 min incubation, 5 min white light (150 mW/cm^2)): 99%; DECREASE OF SURVIVAL (log) ([3]; 10 μM porphyrin): −4.23 ± 0.54 log; inhibition of bacterial cell growth in the dark [9]: barely detectable inhibition; inhibition of bacterial cell growth in the dark [10]: barely detectable inhibition |
